Patent publication US20240124450A1, “Novel SIK Inhibitors” (Pfizer Inc., priority 2022, published 2024)
Like-named read-outs stand apart in the source and are kept apart here.

How the values were obtained:
SIK1 = SIK1 (Homo sapiens (Human), UniProt P57059); assay: Pan SIK MS IC50 enzyme assay (SIK1); type: biochemical; details: 1 mM ATP, substrate peptide AQT0868, LCMS/MS detection
Protocol: (§1) Enzyme Assay: Pan SIK MS IC50 Assay
(§2) Salt Induced Kinase (SIK) activity is determined by measuring the effect of a test agent on the activity of the appropriate SIK enzyme to phosphorylate its corresponding substrate. […] The phosphorylated substrate product resulting from the kinase reaction is detected by LCMS/MS, and the area under the peak curve correlates with kinase activity. […] The plates are spun at 1000 rpm for 30 seconds to ensure compounds are at the bottom of the well before removing foil covers. 0.15 μL HPE (assay std) and ZPE (DMSO) are added to the ARP using an HP D300 dispenser. Plates are spun again at 1000 rpm for 30 seconds. […] Plates are spun at 1000 rpm for 30 seconds. Plates are then sealed and incubated at RT for 10 minutes. Following incubation, 5 μL of 5× peptide reagent is added with a Multidrop Combi and designated small volume cassette to initiate the kinase reaction. Plates are spun at 1000 rpm for 30 seconds. Plates are then sealed and incubated at RT for 90 minutes. The assay is stopped by the addition of 5 μl of 120 mM EDTA added with a Multidrop Combi and designated small volume cassette (20 mM final concentration). Plates are spun at 1000 rpm for 30 seconds. 10 μl of the final reaction mix from each of the three individual enzyme plates are transferred by a Platemate Plus to the same corresponding 96 well deepwell plate containing 70 μl Water/Methanol (85/15%) for multiplex MS detection ([…]). Using Activity Base (ABase), an idbs data analysis software tool, the reported area ratio unit data is associated to compound, batch and dose information, the data is evaluated for quality, and the percent inhibition of each well is calculated. The data from each Max effect/HPE and Min effect/ZPE control wells are assessed, and outliers are excluded from all further calculations. The mean and standard deviation of the HPE and ZPE are then calculated for each plate, along with the Z Prime. The compound data is converted into % effect, using the average ZPE and HPE controls as 0% and 100% activity, respectively.

SIK3 = SIK3 (Homo sapiens (Human), UniProt Q9Y2K2); assay: Pan SIK MS IC50 enzyme assay (SIK3); type: biochemical; details: 1 mM ATP, substrate peptide AQT0508, LCMS/MS detection
Chain of SIK3 (Q9Y2K2 whole entry, species assumed): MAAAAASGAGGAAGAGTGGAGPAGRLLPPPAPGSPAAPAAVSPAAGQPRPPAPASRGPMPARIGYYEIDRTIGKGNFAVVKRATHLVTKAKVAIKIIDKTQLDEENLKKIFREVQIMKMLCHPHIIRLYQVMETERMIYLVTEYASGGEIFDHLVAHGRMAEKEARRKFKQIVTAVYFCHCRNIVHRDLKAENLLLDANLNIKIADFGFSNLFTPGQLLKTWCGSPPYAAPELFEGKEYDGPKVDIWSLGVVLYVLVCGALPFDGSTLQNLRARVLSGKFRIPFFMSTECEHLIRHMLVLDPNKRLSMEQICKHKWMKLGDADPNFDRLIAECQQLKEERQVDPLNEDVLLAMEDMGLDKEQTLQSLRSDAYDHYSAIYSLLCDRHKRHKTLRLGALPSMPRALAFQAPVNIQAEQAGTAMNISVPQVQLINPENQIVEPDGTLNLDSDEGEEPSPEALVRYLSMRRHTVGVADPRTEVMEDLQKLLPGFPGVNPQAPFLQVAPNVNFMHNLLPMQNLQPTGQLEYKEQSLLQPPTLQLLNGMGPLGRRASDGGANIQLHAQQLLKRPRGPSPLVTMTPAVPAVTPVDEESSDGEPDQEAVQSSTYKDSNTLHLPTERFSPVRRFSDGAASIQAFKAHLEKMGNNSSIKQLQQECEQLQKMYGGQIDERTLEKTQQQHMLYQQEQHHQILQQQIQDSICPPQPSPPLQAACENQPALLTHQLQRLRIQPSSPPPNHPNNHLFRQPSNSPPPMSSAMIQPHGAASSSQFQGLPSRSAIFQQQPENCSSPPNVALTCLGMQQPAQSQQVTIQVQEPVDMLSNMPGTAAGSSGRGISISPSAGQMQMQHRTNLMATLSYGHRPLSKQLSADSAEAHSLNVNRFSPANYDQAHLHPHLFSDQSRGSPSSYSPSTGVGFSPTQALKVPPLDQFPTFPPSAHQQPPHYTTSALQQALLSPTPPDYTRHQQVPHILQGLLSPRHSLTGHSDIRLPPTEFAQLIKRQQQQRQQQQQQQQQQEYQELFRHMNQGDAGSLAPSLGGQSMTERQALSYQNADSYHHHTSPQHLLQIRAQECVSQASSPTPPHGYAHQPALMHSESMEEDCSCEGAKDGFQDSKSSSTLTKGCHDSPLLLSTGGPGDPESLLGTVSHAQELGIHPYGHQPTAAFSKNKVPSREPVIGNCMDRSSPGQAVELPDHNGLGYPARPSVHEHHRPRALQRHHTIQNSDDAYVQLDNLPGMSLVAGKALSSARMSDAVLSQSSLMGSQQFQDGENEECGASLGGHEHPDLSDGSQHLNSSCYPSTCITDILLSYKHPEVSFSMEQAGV
Protocol: as §1, §2

SIK2 = SIK2 (Homo sapiens (Human), UniProt Q9H0K1); assay: Pan SIK MS IC50 enzyme assay (SIK2); type: biochemical; details: 1 mM ATP, substrate peptide AQT0252, LCMS/MS detection
Chain of SIK2 (Q9H0K1 whole entry, species assumed): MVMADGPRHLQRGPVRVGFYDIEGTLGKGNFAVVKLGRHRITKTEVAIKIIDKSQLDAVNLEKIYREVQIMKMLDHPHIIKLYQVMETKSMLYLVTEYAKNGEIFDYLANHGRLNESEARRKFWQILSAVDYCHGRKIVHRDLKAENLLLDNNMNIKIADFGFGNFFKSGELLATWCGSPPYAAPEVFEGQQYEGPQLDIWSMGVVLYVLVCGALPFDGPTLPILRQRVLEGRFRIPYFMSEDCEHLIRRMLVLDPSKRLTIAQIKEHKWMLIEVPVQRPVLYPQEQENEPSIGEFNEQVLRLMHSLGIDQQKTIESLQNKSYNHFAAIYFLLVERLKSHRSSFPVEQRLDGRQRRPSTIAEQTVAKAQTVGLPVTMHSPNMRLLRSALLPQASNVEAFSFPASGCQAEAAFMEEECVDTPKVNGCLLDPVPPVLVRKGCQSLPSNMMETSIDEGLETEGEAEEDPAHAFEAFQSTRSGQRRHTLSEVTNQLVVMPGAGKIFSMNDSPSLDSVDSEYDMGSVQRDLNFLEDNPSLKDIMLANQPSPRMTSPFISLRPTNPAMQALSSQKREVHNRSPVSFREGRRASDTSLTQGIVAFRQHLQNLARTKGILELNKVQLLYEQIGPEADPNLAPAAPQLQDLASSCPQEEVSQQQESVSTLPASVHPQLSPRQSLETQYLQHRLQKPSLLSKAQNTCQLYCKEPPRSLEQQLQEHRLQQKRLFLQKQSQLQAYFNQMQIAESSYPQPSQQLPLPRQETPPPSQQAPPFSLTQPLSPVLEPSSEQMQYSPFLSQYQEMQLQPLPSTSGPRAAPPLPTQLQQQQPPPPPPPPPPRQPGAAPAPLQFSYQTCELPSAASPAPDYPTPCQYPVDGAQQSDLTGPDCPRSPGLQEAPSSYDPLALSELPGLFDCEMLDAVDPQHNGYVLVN
Protocol: as §1, §2

[1] = test system: TNFα release from human monocyte derived macrophages stimulated with LPS; assay: SIK macrophage cytokine assay, inhibition of TNFα release; type: cell-based; details: 1 ng/mL LPS, 4 hours, HTRF, read-out: TNFa IC50
Protocol: (§3) Cytokine Assays: SIK Macrophage Assay Cytokine activity is determined by measuring the effect of a test agent on the inhibitory release of the cytokine TNFα and the increasing release of the cytokine IL10 from human monocyte derived macrophages (human macrophages) stimulated with lipopolysaccharide (LPS). At the time of assay, human macrophages (CGPS group Pfizer Groton, CT) are removed from cryopreservation, thawed quickly at 37° C., diluted in thaw medium (OptiMEM—Gibco medium, 10% heat inactivated fetal bovine serum (HIFBS)), and then centrifuged at 200×g for 10 minutes. […] After ˜60 minutes in an incubator at 37° C. in a humidified environment in 5% carbon dioxide the cells are stimulated by the addition of 5 μL of LPS (10 ng/mL; Sigma) and the assay plate is returned to an incubator at 37° C. in a humidified environment in 5% carbon dioxide for 4 hours. […] The final concentration of DMSO in the assay is approximately 0.1%. After 4 hours, the assay plate is removed from the incubator and centrifuged at 1500 rpm for 10 minutes. A portion of the resulting cell supernatant is then used to determine the amount of IL-10 and TNFα in each well. Cytokine measurements are made using human IL-10 and TNFα HTRF assay kits (Perkin Elmer) following the manufacturer's assay protocol.

[2] = test system: IL10 release from human monocyte derived macrophages stimulated with LPS; assay: SIK macrophage cytokine assay, increase of IL10 release; type: cell-based; details: 1 ng/mL LPS, 4 hours, HTRF
Protocol: as §3

Chain of SIK1 (P57059 whole entry, species assumed): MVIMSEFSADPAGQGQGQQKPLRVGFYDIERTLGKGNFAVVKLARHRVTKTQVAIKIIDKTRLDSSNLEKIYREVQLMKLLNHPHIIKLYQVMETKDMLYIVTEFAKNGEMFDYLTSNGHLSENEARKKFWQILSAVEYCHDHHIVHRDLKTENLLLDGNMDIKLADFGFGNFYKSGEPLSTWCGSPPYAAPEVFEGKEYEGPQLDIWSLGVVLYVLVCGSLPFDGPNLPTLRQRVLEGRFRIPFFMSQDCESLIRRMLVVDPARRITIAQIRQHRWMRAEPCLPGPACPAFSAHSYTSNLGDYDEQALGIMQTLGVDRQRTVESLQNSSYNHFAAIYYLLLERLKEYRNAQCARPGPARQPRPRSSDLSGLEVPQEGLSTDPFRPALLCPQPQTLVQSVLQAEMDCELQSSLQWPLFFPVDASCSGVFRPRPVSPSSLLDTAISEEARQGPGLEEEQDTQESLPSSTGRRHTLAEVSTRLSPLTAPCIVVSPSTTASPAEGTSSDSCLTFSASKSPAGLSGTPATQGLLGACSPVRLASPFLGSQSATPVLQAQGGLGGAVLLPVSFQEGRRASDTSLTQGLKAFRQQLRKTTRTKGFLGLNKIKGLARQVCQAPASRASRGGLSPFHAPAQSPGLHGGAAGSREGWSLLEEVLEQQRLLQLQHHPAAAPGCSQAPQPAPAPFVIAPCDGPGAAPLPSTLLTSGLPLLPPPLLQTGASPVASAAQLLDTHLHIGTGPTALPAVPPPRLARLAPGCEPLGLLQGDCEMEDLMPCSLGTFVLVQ

| IC50 (SIK1) | IC50 (SIK3) | IC50 (SIK2) | IC50 ([1]; Macrophage) | EC50 ([2]; Macrophage) | SMILES | IC50 [1] | EC50 [2] |
| --- | --- | --- | --- | --- | --- | --- | --- |
| 0.5 nM | 2 nM | 0.6 nM | 5.2 nM | 21 nM | CC[C@@H]1CCC[C@@]1(N)COc1cc(-c2cnc3cccc(OC)n23)cc(OC)c1C#N [Example 2A, 2-(((1S,2R)-1-Amino-2-ethylcyclopentyl)methoxy)-6-methoxy-4-(5-methoxyimidazo[1,2-a]pyridin-3-yl)benzonitrile] | – | – |
| 12 nM | 71.3 nM | 11.1 nM | 271 nM | 570 nM | CC[C@H]1CCC[C@]1(N)COc1cc(-c2cnc3cccc(OC)n23)cc(OC)c1C#N [Example 2B, 2-(((1R,2S)-1-Amino-2-ethylcyclopentyl)methoxy)-6-methoxy-4-(5-methoxyimidazo[1,2-a]pyridin-3-yl)benzonitrile] | – | – |

Further lines, the molecule ahead of its results:

| SMILES | IC50 (SIK1) | IC50 (SIK3) | IC50 (SIK2) | IC50 ([1]; Macrophage) | EC50 ([2]; Macrophage) | IC50 [1] | EC50 [2] |
| --- | --- | --- | --- | --- | --- | --- | --- |
| COc1cccc2ncc(-c3cc(OCC4(N)CCCC4)c(C#N)c(SC)c3)n12 [Example 1, 2-((1-Aminocyclopentyl)methoxy)-4-(5-methoxyimidazo[1,2-a]pyridin-3-yl)-6-(methylthio)benzonitrile] | 2.5 nM | 7.5 nM | 2.2 nM | 26.4 nM | 109 nM | – | – |
| CCC1CCC(N)(COc2cc(-c3cnc4cccc(OC)n34)cc(OC)c2C#N)C1 (stereo not shown) [Example 3, 2-((1-Amino-3-ethylcyclopentyl)methoxy)-6-methoxy-4-(5-methoxyimidazo[1,2-a]pyridin-3-yl)benzonitrile] | 0.8 nM | 4.7 nM | 2.1 nM | 29.7 nM | 92 nM | – | – |
| CCC1CCCC1(N)COc1cc(-c2cnc3cccc(OC)n23)cc(SC)c1C#N (stereo not shown) [Example 8, 2-((1-Amino-2-ethylcyclopentyl)methoxy)-4-(5-methoxyimidazo[1,2-a]pyridin-3-yl)-6-(methylthio)benzonitrile] | 1.1 nM | 3.3 nM | 1 nM | 11.1 nM | 23 nM | – | – |
| COc1cc(-c2cnc3cccc(OC)n23)cc(OCC2(N)CCCN(CC(F)(F)F)C2)c1C#N (stereo not shown) [Example 21A] | 1 nM | 4.4 nM | 1.1 nM | – | – | 19.6 nM | 50 nM |
| COc1cccc2ncc(-c3cc(OCC4(N)CCCCC4)c(C#N)c(SC)c3)n12 [Example 29, 2-((1-Aminocyclohexyl)methoxy)-4-(5-methoxyimidazo[1,2-a]pyridin-3-yl)-6 (methylthio)benzonitrile] | 2.4 nM | 11.4 nM | 2.9 nM | 29.1 nM | 75 nM | – | – |
| CSc1cc(-c2cnc3cccc(C#N)n23)cc(OCC2(N)CCCC2)c1C#N [Example 36, 3-(3-((1-Aminocyclopentyl)methoxy)-4-cyano-5-(methylthio)phenyl)imidazo[1,2-a]pyridine-5-carbonitrile] | 1.2 nM | 2.1 nM | 0.8 nM | 4.8 nM | 35 nM | – | – |
| CCOC(=O)c1cc(C#N)n2c(-c3cc(OCC4(N)CCCC4)c(C#N)c(SC)c3)cnc2c1 [Example 38, Ethyl 3-(3-((1-aminocyclopentyl)methoxy)-4-cyano-5-(methylthio)phenyl)-5-cyanoimidazo[1,2-a]pyridine-7-carboxylate] | 1.5 nM | 1.8 nM | 1 nM | 20.1 nM | 51 nM | – | – |
| COc1ccc2ncc(-c3cc(OCC4(N)CCCC4)c(C#N)c(SC)c3)n2c1C#N [Example 39, 3-(3-((1-Aminocyclopentyl)methoxy)-4-cyano-5-(methylthio)phenyl)-6-methoxyimidazo[1,2-a]pyridine-5-carbonitrile] | 0.5 nM | 1.1 nM | 1 nM | 6 nM | 25 nM | – | – |
| CSc1cc(-c2cnc3ccc(C)c(C#N)n23)cc(OCC2(N)CCCC2)c1C#N [Example 40, 3-(3-((1-Aminocyclopentyl)methoxy)-4-cyano-5-(methylthio)phenyl)-6-methylimidazo[1,2-a]pyridine-5-carbonitrile] | 0.4 nM | 1.6 nM | 0.6 nM | 6.1 nM | 17 nM | – | – |
